Test results published in patent US20160317474A1, “Managing Visual Dysfunction or Loss of Vision for Diabetic Subjects” (priority 2013, published 2016).
Entries after “also recorded” stand apart in the source; their conditions may differ.

Assays:
[1] = system: Th, Drd1, Drd4 transcript levels; test: Real-time RT-PCR of retinal dopaminergic system-related genes; assay type: in vivo, mice
Excerpt: Note that the y-axis refers to averaged 2−ΔCt values, with ΔCt calculated by subtracting cycle threshold (Ct) of 18S from Ct of gene of interest (GOI). The asterisk indicates significant difference between the respective treatment group and the CTRL WT group.
The specificity of our Th primers was confirmed, because a >4-fold reduction in Th expression in rTHKO mice (Student's t values: DM rTHKO+Veh=5.964 and DM rTHKO+L-DOPA=5.928, p<0.01; FIG. 7, Table 4) regardless of L-DOPA treatment was found.
Whether diabetes affected transcript levels of DA receptors, specifically D1 receptor (Drd1) and D4 receptor (Drd4), which are selectively involved in spatial frequency threshold and contrast sensitivity was investigated. No significant changes were found in the transcript levels of Drd1 and Drd4 (FIG. 7, Table 4).

[2] = Behavioral side effects (dyskinesia) under L-DOPA; assay type: in vivo; conditions: L-DOPA 10 mg/kg daily, CTRL or DM mice
Excerpt: (§1) To examine whether DA deficiency causes visual deficits in early DR, the effects of restoring DA levels with L-DOPA on visual function of DM mice was investigated. […] Moreover, the severity of visual deficits progressed over time. The deficit in spatial frequency threshold of DM WT+Veh group (compared with CTRL WT+Veh group) worsened from 7.0% at 3 weeks after STZ to 12.3% at 6 weeks after STZ, whereas the reduction in contrast sensitivity deteriorated from 12.8% at 3 weeks after STZ to 43.6% at 6 weeks after STZ. […] The reduction in spatial frequency threshold of DM WT+L-DOPA group progressed from 2.4% at 3 weeks after STZ to 7.2% at 6 weeks after STZ, whereas the deficit in contrast sensitivity was only significant at 6 weeks after STZ, with an 18.0% reduction from CTRL animals. […] Furthermore, behavioral side effects such as dyskinesia with our current dosage of L-DOPA (10 mg/kg daily) in either CTRL or DM mice was not observed. A dosage was selected that was lower than the typical dosage used to induce dyskinesia (25 mg/kg) yet could still increase retinal DA levels.

[3] = system: retinal function of DM mice
Excerpt: Next, the postreceptoral function (i.e., b-wave) of these animals was examined.

retinal DA levels = test: Retinal dopamine content after daily intraperitoneal L-DOPA; assay type: in vivo, mice; conditions: daily intraperitoneal injections
Procedure: To validate that daily intraperitoneal injections of L-DOPA were able to increase retinal DA levels, retinal dopamine contents of the following four groups of animals were measured: CTRL WT+Veh, CTRL WT+L-DOPA, DM rTHKO+Veh, and DM rTHKO+L-DOPA. The retinal TH deficiency in the rTHKO mice greatly diminished DA levels compared with both CTRL groups (one-way ANOVA with ranks, H=12.092 with 3 degrees of freedom, p=0.007; Table 3).

STZ-induced DM WT mice = test: Optokinetic tracking (OKT) visual function with chronic L-DOPA treatment in STZ-induced diabetic (DM) and CTRL WT mice; assay type: in vivo; conditions: for reduction in spatial frequency threshold: DM WT+L-DOPA group vs CTRL
Excerpt: as §1

DM rTHKO mice = test: OKT visual function with L-DOPA treatment in diabetic mice with loss of retinal DA (DM rTHKO); assay type: in vivo
Procedure: Because systemic injections of L-DOPA affect both brain and retinal dopaminergic systems, the role of retinal DA deficiency underlying visual deficits in early-stage DR was tested by assessing the effects of diabetes in mice with loss of retinal DA (rTHKO mice). It is hypothesized that reduced retinal DA content is a major contributing factor to the early visual deficits, so diabetes in rTHKO mice should not result in a further decline in their visual function.

[4] = system: retinal function of DM mice; test: Light-adapted flicker ERG (cone pathway function); conditions: 5-week time point
Procedure: Because OKT responses were recorded under photopic conditions, isolated cone pathway function was examined by exposing light-adapted animals to flicker stimuli.

8-week DM WT mice = test: OKT responses of 8-week DM WT mice after selective dopamine receptor agonists; assay type: in vivo; conditions: DM WT mice after 8 weeks of diabetes, agonist injection vs vehicle
Procedure: After 8 weeks of diabetes, the animals were injected with vehicle, D1 receptor (D1R) agonist (SKF38393), and D4 receptor (D4R) agonist (PD168077).

N[C@@H](Cc1ccc(O)c(O)c1)C(=O)O [L-DOPA, (−)-L-α-amino-β-(3,4-dihydroxybenzene)propanoic acid]
Drd4 transcript levels ([1]; DM WT+L-DOPA vs CTRL WT, p<0.05): significant downregulation; also recorded: downregulation of Drd4
Th transcript levels ([1]; L-DOPA treatment, retina, RT-PCR): trend for Th downregulation
behavioral side effects such as dyskinesia [2]: not observed
b-wave amplitude ([3]; DM rTHKO mice (±L-DOPA) vs CTRL WT, dim and bright flash stimuli): significantly reduced responses
b-wave implicit times ([3]; DM rTHKO+L-DOPA, dim and bright stimuli): strong, although not statistically significant, trend for improvement
DA levels of CTRL mice (retinal DA levels; CTRL WT+L-DOPA): did not significantly increase
retina DA contents of rTHKO mice (retinal DA levels; DM rTHKO+L-DOPA): levels comparable to those of CTRL animals
contrast sensitivity change (STZ-induced DM WT mice; DM WT and L-DOPA mice, 6 weeks after STZ): slight decrease
onset of visual deficits (spatial frequency threshold) (STZ-induced DM WT mice; DM WT and L-DOPA mice, slower and less severe progression): 4 weeks after STZ
onset and progression of visual dysfunction (STZ-induced DM WT mice; DM WT mice, chronic L-DOPA treatment): significantly delayed
reduction in spatial frequency threshold (STZ-induced DM WT mice; 3 weeks after STZ, L-DOPA 10 mg/kg daily): 2.4%
reduction in spatial frequency threshold (STZ-induced DM WT mice; 6 weeks after STZ, L-DOPA 10 mg/kg daily): 7.2%
deficit in contrast sensitivity (reduction from CTRL animals) (STZ-induced DM WT mice; DM WT+L-DOPA group, 6 weeks after STZ, L-DOPA 10 mg/kg daily): 18.0%
spatial frequency threshold or contrast sensitivity in CTRL mice (STZ-induced DM WT mice; non-diabetic CTRL mice treated with L-DOPA): did not cause significant changes
contrast sensitivities vs DM rTHKO+Veh (DM rTHKO mice): significantly better
visual functions of DM rTHKO mice (DM rTHKO mice; for the duration of the study): significantly improved
spatial frequency thresholds vs DM rTHKO+Veh (DM rTHKO mice; throughout the study duration, p<0.001): significantly higher
flicker ERG responses (amplitude and implicit time) ([4]; DM WT+L-DOPA, light-adapted, 6 Hz flicker): levels similar to those of CTRL animals; also recorded: restore ERG responses of DM WT mice to those of CTRL mice
cone pathway functions (flicker responses) ([4]; DM rTHKO+L-DOPA vs CTRL levels): partially restore

Cc1cccc(C(=O)NCN2CCN(c3ccccc3C#N)CC2)c1 [PD168077]
contrast sensitivity (8-week DM WT mice): only improved contrast sensitivity
spatial frequency threshold (8-week DM WT mice): failed to improve
contrast sensitivity (8-week DM WT mice; listed as D4 agonist): significantly enhanced

Oc1cc2c(cc1O)C(c1ccccc1)CNCC2 (stereo not drawn) [SKF38393, 1-Phenyl-2,3,4,5-tetrahydro-(1H)-3-benzazepine-7,8-diol]
spatial frequency threshold (8-week DM WT mice): only improved spatial frequency threshold
spatial frequency threshold (8-week DM WT mice; listed as D1 receptor agonist): improved significantly
